What was measured:
Assay in all cases: Test B pre-/postemergence plant response
Assay type in all cases: in vivo
[1] = test system: galium (catchweed bedstraw, Galium aparine); conditions: Preemergence
Outline: (§1)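 Visually scored on a 0 to 100 scale after 13 to 15 days in greenhouse versus controls. Treatments were preemergence on seeded loam/sand soil and postemergence on 1- to 4-leaf plants.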

[2] = test system: woolly cupgrass (Eriochloa villosa)
Outline: as §1

[3] = test system: cocklebur (Xanthium strumarium)
Outline: as §1

[4] = test system: sunflower (common oilseed sunflower, Helianthus annuus); conditions: Preemergence
Outline: as §1

[5] = test system: Surinam grass (Brachiaria decumbens)
Outline: as §1

wild oat (Avena fatua) = test system: wild oat (Avena fatua)
Outline: as §1

[6] = test system: large crabgrass (Digitaria sanguinalis)
Outline: as §1

[7] = test system: nightshade (eastern black nightshade, Solanum ptycanthum); conditions: Preemergence
Outline: as §1

[8] = test system: yellow nutsedge (Cyperus esculentus)
Outline: as §1

kochia (Kochia scoparia) = test system: kochia (Kochia scoparia)
Outline: as §1

[9] = test system: lambsquarters (Chenopodium album)
Outline: as §1

[10] = 31 g ai/ha, scale 0 to 100 (0 no effect, 100 complete control)
[11] = 62 g ai/ha, scale 0 to 100, 0 no effect, 100 complete control
[12] = 125 g ai/ha, scale 0 to 100, 0 no effect, 100 complete control
[13] = 31 g ai/ha, postemergence, scale 0 to 100, 0 is no effect, 100 is complete control
[14] = 250 g ai/ha, Preemergence, 0 to 100 scale
[15] = Postemergence, 62 g ai/ha, scale 0 (no effect) to 100 (complete control), 13 to 15 days
[16] = Postemergence, 125 g ai/ha, visual rating after 13 to 15 days, scale 0 (no effect) to 100 (complete control)
[17] = Postemergence, 250 g ai/ha, scale 0 to 100 (0 no effect, 100 complete control)
[18] = Preemergence, 31 g ai/ha, scale 0 to 100 (0 no effect, 100 complete control)
[19] = Preemergence, 62 g ai/ha, scale 0 to 100, 0 no effect, 100 complete control
[20] = Preemergence, 125 g ai/ha, scale 0 to 100, 0 no effect, 100 complete control

Structure (SMILES): CCCCc1ncc(C(=O)C2=C(O)CCCC2=O)c(=O)n1-c1ccccc1C [Compound 62]
- Plant response rating, Galium ([1]; 250 g ai/ha, 0 to 100 scale): 0
- Plant response rating, Galium [1, 10]: 0
- Plant response rating, Galium [1, 11]: 0
- Plant response rating, Galium [1, 12]: 0
- Plant response rating, Cupgrass, Woolly [2, 13]: 55
- Plant response rating, Cupgrass, Woolly [2, 14]: 10
- Plant response rating, Cupgrass, Woolly [2, 15]: 55
- Plant response rating, Cupgrass, Woolly [2, 16]: 60
- Plant response rating, Cupgrass, Woolly [2, 17]: 65
- Plant response rating, Cupgrass, Woolly [2, 18]: 0
- Plant response rating, Cupgrass, Woolly [2, 19]: 0
- Plant response rating, Cupgrass, Woolly [2, 20]: 5
- Plant response rating, Cocklebur [3, 13]: 25
- Plant response rating, Cocklebur [3, 14]: 10
- Plant response rating, Cocklebur [3, 15]: 55
- Plant response rating, Cocklebur [3, 16]: 55
- Plant response rating, Cocklebur [3, 17]: 75
- Plant response rating, Cocklebur [3, 18]: 0
- Plant response rating, Cocklebur [3, 19]: 0
- Plant response rating, Cocklebur [3, 20]: 0
- Plant response rating, Sunflower [4, 10]: 0
- Plant response rating, Sunflower [4, 11]: 10
- Plant response rating, Sunflower [4, 12]: 10
- Plant response rating, Surinam Grass [5, 13]: 20
- Plant response rating, Surinam Grass [5, 15]: 45
- Plant response rating, Surinam Grass [5, 16]: 65
- Plant response rating, Surinam Grass [5, 17]: 70
- Plant response rating, Surinam Grass [5, 18]: 5
- Plant response rating, Surinam Grass [5, 19]: 20
- Plant response rating, Surinam Grass [5, 20]: 25
- Plant response rating, Oat, Wild (wild oat (Avena fatua); [13]): 5
- Plant response rating, Oat, Wild (wild oat (Avena fatua); [15]): 10
- Plant response rating, Oat, Wild (wild oat (Avena fatua); [16]): 25
- Plant response rating, Oat, Wild (wild oat (Avena fatua); [17]): 40
- Plant response rating, Oat, Wild (wild oat (Avena fatua); [18]): 0
- Plant response rating, Oat, Wild (wild oat (Avena fatua); [19]): 0
- Plant response rating, Oat, Wild (wild oat (Avena fatua); [20]): 0
- Plant response rating, Crabgrass, Large [6, 13]: 55
- Plant response rating, Crabgrass, Large [6, 14]: 98
- Plant response rating, Crabgrass, Large [6, 15]: 75
- Plant response rating, Crabgrass, Large [6, 16]: 80
- Plant response rating, Crabgrass, Large [6, 17]: 85
- Plant response rating, Crabgrass, Large [6, 18]: 0
- Plant response rating, Crabgrass, Large [6, 19]: 50
- Plant response rating, Crabgrass, Large [6, 20]: 80
- Plant response rating, Nightshade [7, 10]: 10
- Plant response rating, Nightshade [7, 11]: 95
- Plant response rating, Nightshade [7, 12]: 98
- Plant response rating, Nutsedge, Yellow [8, 13]: 15
- Plant response rating, Nutsedge, Yellow [8, 15]: 25
- Plant response rating, Nutsedge, Yellow [8, 16]: 35
- Plant response rating, Nutsedge, Yellow [8, 17]: 55
- Plant response rating, Nutsedge, Yellow [8, 18]: 15
- Plant response rating, Nutsedge, Yellow [8, 19]: 25
- Plant response rating, Nutsedge, Yellow [8, 20]: 45
- Plant response rating, Kochia (kochia (Kochia scoparia); [13]): 10
- Plant response rating, Kochia (kochia (Kochia scoparia); [14]): 100
- Plant response rating, Kochia (kochia (Kochia scoparia); [15]): 25
- Plant response rating, Kochia (kochia (Kochia scoparia); [16]): 60
- Plant response rating, Kochia (kochia (Kochia scoparia); [17]): 80
- Plant response rating, Kochia (kochia (Kochia scoparia); [18]): 98
- Plant response rating, Kochia (kochia (Kochia scoparia); [19]): 100
- Plant response rating, Kochia (kochia (Kochia scoparia); [20]): 100
- Plant response rating, Lambsquarters [9, 13]: 85
- Plant response rating, Lambsquarters [9, 14]: 100
- Plant response rating, Lambsquarters [9, 15]: 95
- Plant response rating, Lambsquarters [9, 16]: 98
- Plant response rating, Lambsquarters [9, 17]: 100
- Plant response rating, Lambsquarters [9, 18]: 98
- Plant response rating, Lambsquarters [9, 19]: 98
- Plant response rating, Lambsquarters [9, 20]: 100

From patent US8952024B2, “Herbicidal pyrimidone derivatives” (E I du Pont de Nemours and Company, priority 2009, dated 2015)
